From patent US5578620A, “Thiazolidine and oxazolidine derivatives, their preparation and their medical use” (Sankyo Company, Limited, priority 1994, dated 1996)

Molecular target: T1, Bovine lens aldose reductase (Bos taurus, UniProt P16116)
T1 construct: Bovine lens aldose reductase was separated and partially purified; from tissue; host or cells: bovine lens
Experiment: Inhibition of Aldose reductase
Type: biochemical
Details: for inhibition at 5 µg/mL: read-out: Inhibition at 5 μg/ml
Protocol: Bovine lens aldose reductase was separated and partially purified by the method of S. Hyman and J. H. Kinoshita [J. Biol. Chem., 240, 877 (1965)] and K. Inagaki, I. Miwa and J. Okuda [Arch. Biochem. Biophys., 316, 337 (1982)], and its activity was determined photometrically by the method of Varma et al. [Biochem. Pharmac., 25, 2505 (1976)]. […]

Row | SMILES | IC50 [µM] | inhibition at 5 µg/mL [%]
1 | CC(COc1ccc(CC2SC(=O)NC2=O)cc1)NCC(O)COc1cccc(Cl)c1 (stereo not shown) [Example 2, 5-{4-[2-(3-3'-Chlorophenoxy-2-hydroxypropylamino)propoxy]benzyl}thiazolidine-2,4-dione] | 6.02 | 63.2
2 | CC(COc1ccc(CC2SC(=O)NC2=O)cc1)N1CC(COCCCCCc2ccccc2)OC1=O (stereo not shown) [Example 26, 5-{4-[2-(5-5'-Phenylpentyloxymethyl-2-oxooxazolidin-3-yl)propoxy]benzyl}thiazolidine-2,4-dione] | 1.04 | 74.2
3 | O=C1NC(=O)C(Cc2ccc(OCCCCN3CC(COc4cccc(Cl)c4)OC3=O)cc2)S1 (stereo not shown) [Example 54, 5-{4-[4-(5-3'-Chlorophenoxymethyl-2-oxooxazolidin-3-yl)butoxy]benzyl}thiazolidine-2,4-dione] | 1.98 | 69.1
4 | CCC(COc1ccc(CC2SC(=O)NC2=O)cc1)NCC(O)COc1cccc(Cl)c1 (stereo not shown) [Example 46, 5-{4-[2-(3-3'-Chlorophenoxy-2-hydroxypropylamino)butoxy]benzyl}thiazolidine-2,4-dione] | 6.05 | 61
5 | CC(COc1ccc(CC2SC(=O)NC2=O)cc1)N1CC(COCCCCc2ccccc2)OC1=O (single isomer, unassigned) [25 (less polar), 5-{4-[2-(5-4'-Phenylbutoxymethyl-2-oxooxazolidin-3-yl)propoxy]benzyl}thiazolidine-2,4-dione] | 3.9 | 57.1
6 | CCC(COc1ccc(CC2SC(=O)NC2=O)cc1)N1CC(COc2cccc(Cl)c2)OC1=O (single isomer, unassigned) [47 (less polar), 5-{4-[2-(5-3'-Chlorophenoxymethyl-2-oxooxazolidin-3-yl)butoxy]benzyl}thiazolidine-2,4-dione] | 3.17 | 57.6
7 | CC(COc1ccc(CC2SC(=O)NC2=O)cc1)NCC(O)COc1ccc(-c2ccccc2)cc1 (stereo not shown) [Example 34, 5-{4-[2-(3-4'-Phenylphenoxy-2-hydroxypropylamino)propoxy]benzyl}thiazolidine-2,4-dione] | 3.75 | 62
8 | O=C1NC(=O)C(Cc2ccc(OCCCN3CC(COc4ccccc4)OC3=O)cc2)S1 (stereo not shown) [Example 53, 5-{4-[3-(5-Phenoxymethyl-2-oxooxazolidin-3-yl)propoxy]benzyl}thiazolidine-2,4-dione] | 2.41 | 77.6
9 | CC(COc1ccc(CC2SC(=O)NC2=O)cc1)N1CC(COCCCCc2ccccc2)OC1=O (stereo not shown) [25 (polar), 5-{4-[2-(5-4'-Phenylbutoxymethyl-2-oxooxazolidin-3-yl)propoxy]benzyl}thiazolidine-2,4-dione] | 0.429 | 82
10 | CC(COc1ccc(CC2SC(=O)NC2=O)cc1)N1CC(COCCCCCCc2ccccc2)OC1=O (stereo not shown) [Example 27, 5-{4-[2-(5-6'-Phenylhexyloxymethyl-2-oxooxazolidin-3-yl)propoxy]benzyl}thiazolidine-2,4-dione] | 3.51 | 54.9
11 | CC(COc1ccc(CC2SC(=O)NC2=O)cc1)NCC(O)CSc1ccccc1 (stereo not shown) [Example 37, 5-{4-[2-(3-Phenylthio-2-hydroxypropylamino)propoxy]benzyl}thiazolidine-2,4-dione] | 8.73 | 55.2
12 | CC(COc1ccc(CC2SC(=O)NC2=O)cc1)N1CC(COCc2cccc(Cl)c2)OC1=S (stereo not shown) [Example 43, 5-{4-[2-(5-3'-Chlorobenzyloxymethyl-2-thioxooxazolidin-3-yl)propoxy]benzyl}thiazolidine-2,4-dione] | 1.17 | 65.9
13 | CC(COc1ccc(CC2SC(=O)NC2=O)cc1)NCC(O)COCCCCCCCCc1ccccc1 (stereo not shown) [Example 21, 5-{4-[2-(3-8'-Phenyloctyloxy-2-hydroxypropylamino)propoxy]benzyl}thiazolidine-2,4-dione] | 4.61 | 58.7
14 | CC(COc1ccc(CC2SC(=O)NC2=O)cc1)NCC(O)COCCCCCc1ccccc1 (stereo not shown) [Example 16, 5-{4-[2-(3-5'-Phenylpentyloxy-2-hydroxypropylamino)propoxy]benzyl}thiazolidine-2,4-dione] | 6.59 | 59.2

Other lines, results leading:

Row | IC50 [µM] | inhibition at 5 µg/mL [%] | SMILES
15 | 1.86 | 72.8 | CC(C)(COc1ccc(CC2SC(=O)NC2=O)cc1)N1CC(COc2cccc(Cl)c2)OC1=O (stereo not shown) [Example 52, 5-{4-[2-(5,3'-Chlorophenoxymethyl-2-oxooxazolidin-3-yl)-2-methylpropoxy]benzyl}thiazolidine-2,4-dione]
16 | 3.94 | 60.1 | CC(CSc1ccc(CC2SC(=O)NC2=O)cc1)N1CC(COc2cccc(Cl)c2)OC1=O (single isomer, unassigned) [10 (less polar), 5-{4-[2-(5-3'-Chlorophenoxymethyl-2-oxooxazolidin-3-yl)propylthio]benzyl}thiazolidine-2,4-dione]
17 | 1.97 | 71.7 | CC(COc1ccc(CC2SC(=O)NC2=O)cc1)N1CC(COCCCc2ccccc2)OC1=O (single isomer, unassigned) [24 (less polar), 5-{4-[2-(5-3'-Phenylpropoxymethyl-2-oxooxazolidin-3-yl)propoxy]benzyl}thiazolidine-2,4-dione]
18 | 3.79 | 68.6 | CC(COc1ccc(CC2SC(=O)NC2=O)cc1)N1CC(COc2cccc(F)c2)OC1=O (stereo not shown) [Example 30, 5-{4-[2-(5-3'-Fluorophenoxymethyl-2-oxooxazolidin-3-yl)propoxy]benzyl}thiazolidine-2,4-dione]
19 | 0.789 | 88.3 | CC(CSc1ccc(CC2SC(=O)NC2=O)cc1)N1CC(COc2cccc(Cl)c2)OC1=O (stereo not shown) [10 (polar), 5-{4-[2-(5-3'-Chlorophenoxymethyl-2-oxooxazolidin-3-yl)propylthio]benzyl}thiazolidine-2,4-dione]
20 | 1.04 | 77.8 | CC(COc1ccc(CC2SC(=O)NC2=O)cc1)N1CC(COc2ccccc2)OC1=S (stereo not shown) [Example 49, 5-{4-[2-(5-Phenoxymethyl-2-thioxooxaolidin-3-yl)propoxy]benzyl}thiazolidine-2,4-dione]
21 | 1.88 | 74 | CC(COc1ccc(CC2SC(=O)NC2=O)cc1)N1CC(COCc2cccc(Cl)c2)OC1=O (stereo not shown) [Example 42, 5-{4-[2-(5-3'-Chlorobenzyloxymethyl-2-oxooxazolidin-3-yl)propoxy]benzyl}thiazolidine-2,4-dione]
22 | 0.617 | – | CCCC(COc1ccc(CC2SC(=O)NC2=O)cc1)N1CC(COc2cccc(Cl)c2)OC1=O (stereo not shown) [Example 50, 5-{4-[2-(5-3'-Chlorophenoxymethyl-2-oxooxazolidin-3-yl)pentyloxy]benzyl}thiazolidine-2,4-dione]
23 | 3.3 | 70.7 | CC(COc1ccc(CC2SC(=O)NC2=O)cc1)N1CC(COCCc2ccccc2)OC1=O (stereo not shown) [Example 23, 5-{4-[2-(5-2'-Phenylethoxymethyl-2-oxooxazolidin-3-yl)propoxy]benzyl}thiazolidine-2,4-dione]
24 | 4.99 | 67.2 | CC(COc1ccc(CC2SC(=O)NC2=O)cc1)N1CC(Cc2ccccc2)OC1=O (stereo not shown) [Example 8, 5-{4-[2-(5-Benzyl-2-oxooxazolidin-3-yl)propoxy]benzyl}thiazolidine-2,4-dione]
25 | 1.5 | 80.1 | CC(COc1ccc(CC2SC(=O)NC2=O)cc1)N1CC(CSc2ccccc2)OC1=O (stereo not shown) [Example 38, 5-{4-[2-(5-Phenylthiomethyl-2-oxooxazolidin-3-yl)propoxy]benzyl}thiazolidine-2,4-dione]
26 | 2.85 | 62.7 | CC(COc1ccc(CC2SC(=O)NC2=O)cc1)N1CCOC(COc2cccc(Cl)c2)C1 (stereo not shown) [Example 55, 5-{4-[2-(2-3'-Chlorophenoxymethylmorpholino)propoxy]benzyl}thiazolidine-2,4-dione]
27 | 1.85 | 80.9 | CC(COc1ccc(CC2SC(=O)NC2=O)cc1)N1CC(CN(C)c2ccccc2)OC1=O (stereo not shown) [Example 40, 5-[4-{2-[5-(N-Methyl-N-phenylaminomethyl)-2-oxooxazolidin-3-yl]propoxy}benzyl]thiazolidine-2,4-dione]
28 | 0.863 | 88.1 | COc1ccc(OCC2CN(C(C)COc3ccc(CC4SC(=O)NC4=O)cc3)C(=O)O2)cc1 (stereo not shown) [31 (polar), 5-{4-[2-(5-4'-Methoxyphenoxymethyl-2-oxooxazolidin-3-yl)propoxy]benzyl}thiazolidine-2,4-dione]
29 | 0.641 | 85.5 | CC(COc1ccc(CC2SC(=O)NC2=O)cc1)N1CC(COc2cccc(N(C)C)c2)OC1=O (stereo not shown) [Example 33, 5-{4-[2-(5-3'-Dimethylaminophenoxymethyl-2-oxooxazolidin-3-yl)propoxy]benzyl}thiazolidine-2,4-dione]
30 | 2.41 | 84.5 | CC(COc1ccc(CC2SC(=O)NC2=O)cc1)N1CC(COc2ccccc2)OC1=O (stereo not shown) [Example 4, 5-{4-[2-(5-Phenoxymethyl-2-oxooxazolidin-3-yl)propoxy]benzyl}thiazolidine-2,4-dione]
31 | 6.12 | 54.6 | CC(COc1ccc(CC2SC(=O)NC2=O)cc1)NCC(O)COc1cccc(N(C)C)c1 (stereo not shown) [Example 32, 5-{4-[2-(3-3'-Dimethylaminophenoxy-2-hydroxypropylamino)propoxy]benzyl}thiazolidine-2,4-dione]
